# Test results reported in patent US11382921B2, “Use of compounds in preparation of a medicament for treatment of hemorrhagic stroke” (priority 2017, dated 2022).
# Key:
# [1] = system: C57B mouse model of cerebral hemorrhage; experiment: Determination of intracerebral hemorrhage (hemorrhage area, brain hemoglobin content) in collagenase-induced intracerebral hemorrhage model; type: in vivo; details: C57B mice
# Procedure: (§1) 112 clean grade health C57 male mice (8˜10 week, 20-22 g) were purchased from Beijing Vital River Laboratory Animal Technology Co. Ltd. Feeding conditions: 22° C.˜26° C., humidity 50%˜60%. The mice were grouped, fed with standard feed and purified water, and subjected to adaptive feeding for 1 week.
# Establishment of Intracerebral hemorrhage model: After weighing body weight of mice, anesthesia was induced by 5% enflurane, and maintained by 2% enflurane mixed with 70% N2O and 30% O2. Mice were fixed on a stereotactic apparatus in the prone position and disinfected topically. The skin of the animals was incised to expose the skull for drilling. 0.3 μl of 0.35UVII collagenase was slowly injected with a micro sampler. The needle was kept for 5 min then slowly pulled out for 5 min, and the skull drilling was covered by bone glue. Animals were sutured, and subjected to routine disinfection. In the sham operation group, the needle was inserted in the same way, but without injection. The solvent or Triol was administered by intraperitoneal injection at 60 mg/kg 1 h after modeling. […]
# chloral hydrated peritoneal was injected intraperitoneally for anesthesia at 24 hours after modeling. […] The hemoglobin content in the brain was measured with a hemoglobin detection kit.
# [2] = system: C57B mouse model of cerebral hemorrhage; experiment: Neurobehavioral scoring (circle test, adhesive paper test, modified Garcia score) in collagenase-induced intracerebral hemorrhage model; type: in vivo; details: C57B mice, 60 mg/kg i.p. 1 h after modeling
# Procedure: FIG. 2. […] A. Circle test; Adhesive paper test; B. Time duration for contacting adhesive paper; C. Time consumption to tear off adhesive paper; *p<0.05, ***p<0.001, n=12˜23 animals/group. con: normal; sham: sham-operated group; ICH: cerebral hemorrhage model; vehicle: solvent.
# FIG. 3. […] Modified Garcia score (A-D) is used to evaluate somatosensory and motor function at 24 hours after cerebral hemorrhage in C57B mice: A. Nose hair contact test; B. Limb symmetry test; C. Forelimb walking test, D. Overall nerve function Score; n=12˜23 animals/group, *p<0.05, **p<0.01, ***p<0.001. con: normal; sham: sham-operated group; ICH: cerebral hemorrhage model; vehicle: solvent.
# as §1
# Establishment of Intracerebral hemorrhage model: After weighing body weight of mice, anesthesia was induced by 5% enflurane, and maintained by 2% enflurane mixed with 70% N2O and 30% O2. Mice were fixed on a stereotactic apparatus in the prone position and disinfected topically. The skin of the animals was incised to expose the skull for drilling. 0.3 μl of 0.35UVII collagenase was slowly injected with a micro sampler. The needle was kept for 5 min then slowly pulled out for 5 min, and the skull drilling was covered by bone glue. Animals were sutured, and subjected to routine disinfection. In the sham operation group, the needle was inserted in the same way, but without injection. The solvent or Triol was administered by intraperitoneal injection at 60 mg/kg 1 h after modeling.
# C57 mice were divided into 5 groups using random number method, namely normal control group (n=12), sham operation group (n=12), cerebral hemorrhage group (n=26), cerebral hemorrhage+solvent intraperitoneal injection 1 h after modeling group (n=26), and cerebral hemorrhage+Triol intraperitoneal injection 1 h after modeling group (n=26).
# The neurological function was measured 24 hours after the cerebral hemorrhage model was established.
structure (smiles),measurement,setting,value
"C[C@@]12CCCC1C1C[C@@H](O)[C@@]3(O)C[C@@H](O)CC[C@]3(C)C1CC2 (stereo partly drawn) [Triol, 5α-androst-3β,5,6β-triol]",hemoglobin content of the hemorrhagic hemisphere (amount of hemorrhage),"[1]; 60 mg/kg i.p. 1 h after modeling, 24 h, vs cerebral hemorrhage model group, p<0.01 (FIG. 1B)",decreased significantly
same,hemorrhage area (volume) of the hemisphere brain with collagenase injection,"[1]; Triol 60 mg/kg intraperitoneal 1 h after modeling, 24 h later (FIG. 1A)",significantly reduced
same,adhesive paper test: time consumption to remove adhesive paper,"[2]; 24 h, p<0.001 (FIG. 2C)",significantly reduced
same,modified Garcia score: beard touch avoidance (nose hair contact test),"[2]; 24 h, p<0.001 (FIG. 3A)",significantly restored
same,"neurological function scores (overall, modified Garcia)","[2]; 24 h, p<0.001 (FIG. 3D)",significantly improved
same,modified Garcia score: symmetry of the limbs' movement,"[2]; 24 h, p<0.01 (FIG. 3B)",significantly improved
same,adhesive paper test: time duration for contacting adhesive paper,"[2]; 24 h, p<0.05 (FIG. 2B)",significantly reduced
same,modified Garcia score: forelimb walking,"[2]; 24 h, p<0.05 (FIG. 3C)",significantly improved
same,circle test: time taken to go out of the center of the circle to any point of the circle edge,[2]; 24 h after cerebral hemorrhage (FIG. 2A),has a tendency to decrease
